These results are taken from patent EP2424865B1 (Boehringer Ingelheim International GmbH, priority 2009, dated 2010).

Data set [1] has as its target human recombinant cytochrome P450 2C9 (Homo sapiens, UniProt P11712). Kind of data set: Biological Test Example 7: CYP2C9 inhibition ([O-methyl-14C]-Naproxen O-demethylation).
Data set [2] concerns the target human recombinant cytochrome P450 2C19 (Homo sapiens, UniProt P33261). Kind of data set: Biological Test Example 8: CYP2C19 inhibition ([N-methyl-14C]-Diazepam N-demethylation).
In data set [3] the target is human recombinant cytochrome P450 3A4 (Homo sapiens, UniProt P08684).
The test system of another data set is Plasma protein. Kind of data set: Biological Test Example 5: fraction unbound in human plasma (equilibrium dialysis). The class given is in vitro ADME. Particulars: Examples. Background: Equilibrium dialysis compares concentrations on both sides of a semipermeable membrane.

As a reminder, the IC50 is the concentration needed to halve the response being measured.

Sequence of human recombinant cytochrome P450 2C9 (P11712 whole entry): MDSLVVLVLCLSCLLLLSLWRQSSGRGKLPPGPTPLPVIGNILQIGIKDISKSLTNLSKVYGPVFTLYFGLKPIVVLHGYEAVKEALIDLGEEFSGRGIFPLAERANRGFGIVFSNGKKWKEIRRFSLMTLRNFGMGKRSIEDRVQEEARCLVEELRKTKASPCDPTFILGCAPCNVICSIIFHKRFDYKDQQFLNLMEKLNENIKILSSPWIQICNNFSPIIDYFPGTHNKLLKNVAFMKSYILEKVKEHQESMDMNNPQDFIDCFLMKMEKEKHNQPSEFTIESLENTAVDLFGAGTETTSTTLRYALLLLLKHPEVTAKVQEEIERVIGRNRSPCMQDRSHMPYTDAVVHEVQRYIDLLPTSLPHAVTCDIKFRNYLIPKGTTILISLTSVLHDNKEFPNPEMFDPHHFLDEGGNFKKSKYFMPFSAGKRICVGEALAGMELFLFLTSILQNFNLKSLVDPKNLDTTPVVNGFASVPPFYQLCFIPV
Sequence of human recombinant cytochrome P450 2C19 (P33261 whole entry): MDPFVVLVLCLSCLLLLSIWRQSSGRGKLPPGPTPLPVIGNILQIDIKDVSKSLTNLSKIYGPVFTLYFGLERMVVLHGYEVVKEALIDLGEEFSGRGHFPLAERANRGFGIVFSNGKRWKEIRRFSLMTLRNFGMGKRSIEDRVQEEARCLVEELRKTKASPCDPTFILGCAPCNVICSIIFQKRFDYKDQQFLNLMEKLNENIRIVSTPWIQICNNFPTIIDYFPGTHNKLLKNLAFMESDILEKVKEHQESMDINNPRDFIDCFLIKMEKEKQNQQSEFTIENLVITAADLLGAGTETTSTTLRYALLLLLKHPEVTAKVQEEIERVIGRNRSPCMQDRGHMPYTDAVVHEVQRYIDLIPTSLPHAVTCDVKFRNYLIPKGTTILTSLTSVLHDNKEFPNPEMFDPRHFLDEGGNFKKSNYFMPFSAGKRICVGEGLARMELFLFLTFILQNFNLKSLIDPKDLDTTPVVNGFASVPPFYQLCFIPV
Sequence of human recombinant cytochrome P450 3A4 (P08684 whole entry): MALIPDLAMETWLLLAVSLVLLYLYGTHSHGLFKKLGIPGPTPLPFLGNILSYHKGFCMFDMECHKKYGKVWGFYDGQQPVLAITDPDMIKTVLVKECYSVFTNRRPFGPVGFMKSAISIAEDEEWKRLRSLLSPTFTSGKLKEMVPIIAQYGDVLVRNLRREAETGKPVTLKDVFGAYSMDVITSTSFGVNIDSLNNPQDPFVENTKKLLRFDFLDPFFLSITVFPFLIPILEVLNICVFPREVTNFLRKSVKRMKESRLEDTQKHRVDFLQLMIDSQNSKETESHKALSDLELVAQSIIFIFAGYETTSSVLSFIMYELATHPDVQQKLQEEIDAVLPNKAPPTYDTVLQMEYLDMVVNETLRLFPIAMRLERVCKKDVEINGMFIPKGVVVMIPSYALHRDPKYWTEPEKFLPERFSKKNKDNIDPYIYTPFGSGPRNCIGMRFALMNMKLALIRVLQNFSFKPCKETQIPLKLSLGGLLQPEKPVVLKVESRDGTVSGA

With `CCn1ccc(-c2ccc([C@H](C)N3CC[C@](CC(C)(C)O)(c4ccccc4)OC3=O)cc2)cc1=O` [Example 65, (S)-3-((S)-1-(4-(1-ethyl-2-oxo-1,2-dihydropyridin-4-yl)phenyl)ethyl)-6-(2-hydroxy-2-methylpropyl)-6-phenyl-1,3-oxazinan-2-one], the IC50 in data set [1] was more than 50 µM; in data set [2], 25 µM; in data set [3], more than 50 µM.

With `CC(C)n1cc(-c2ccc([C@H](C)N3CC[C@](CC(C)(C)O)(c4ccccc4)OC3=O)cc2)ccc1=O` [Example 59, (S)-6-(2-hydroxy-2-methylpropyl)-3-((S)-1-(4-(1-isopropyl-6-oxo-1,6-dihydropyridin-3-yl)phenyl)ethyl)-6-phenyl-1,3-oxazinan-2-one], the IC50 in data set [2] was 37 µM.

For `C[C@@H](c1ccc(-c2ccc(=O)n(CC(F)(F)F)c2)cc1)N1CC[C@](CC(C)(C)O)(c2ccccc2)OC1=O` [Example 67, (S)-6-(2-hydroxy-2-methylpropyl)-3-((S)-1-(4-(6-oxo-1-(2,2,2-trifluoroethyl)-1,6-dihydropyridin-3-yl)phenyl)ethyl)-6-phenyl-1,3-oxazinan-2-one], the IC50 turned out to be 41 µM in data set [1], 34 µM in data set [2] and 28 µM in data set [3].

As for `Cc1cc(-c2ccc([C@H](C)N3CC[C@](CC(C)(C)O)(c4ccccc4)OC3=O)cc2)cc(=O)n1C` [Example 64, (S)-3-((S)-1-(4-(1,6-dimethyl-2-oxo-1,2-dihydropyridin-4-yl)phenyl)ethyl)-6-(2-hydroxy-2-methylpropyl)-6-phenyl-1,3-oxazinan-2-one], the values for the IC50 in data set [1] and in data set [2] were 33 µM and 17 µM, respectively.

For the molecule `C[C@@H](c1ccc(-c2ccc(=O)n(C)c2)cc1)N1CC[C@](CC(C)(C)C#N)(c2ccc(F)cc2)OC1=O` [Example 69, 3-((R)-6-(4-fluorophenyl)-3-((S)-1-(4-(1-methyl-6-oxo-1,6-dihydropyridin-3-yl)phenyl)ethyl)-2-oxo-1,3-oxazinan-6-yl)-2,2-dimethylpropanenitrile], the IC50 came to 38 µM in data set [1] and 23 µM in data set [3].

Consider `C[C@@H](c1ccc(-c2ccn(C3CC3)c(=O)c2)cc1)N1CC[C@](CC(C)(C)O)(c2ccccc2F)OC1=O` [Example 88, (S)-3-((S)-1-(4-(1-cyclopropyl-2-oxo-1,2-dihydropyridin-4-yl)phenyl)ethyl)-6-(2-fluorophenyl)-6-(2-hydroxy-2-methylpropyl)-1,3-oxazinan-2-one], for which the IC50 in data set [1] amounted to 28 µM.

As for `C[C@@H](c1ccc(-c2cc[nH]c(=O)c2)cc1)N1CC[C@](CC(C)(C)C#N)(c2ccccc2)OC1=O` [Example 14, 2,2-dimethyl-3-((R)-2-oxo-3-((S)-1-(4-(2-oxo-1,2-dihydropyridin-4-yl)phenyl)ethyl)-6-phenyl-1,3-oxazinan-6-yl)propanenitrile], the values for the IC50 in data set [1], in data set [2] and in data set [3] were 18 µM, 24 µM and 25 µM, respectively.

Consider `CC[C@@H](c1ccc(-c2ccc(=O)n(CC)c2)cc1)N1CC[C@](CC(C)(C)O)(c2ccccc2)OC1=O` [Example 52, (S)-3-((S)-1-(4-(1-ethyl-6-oxo-1,6-dihydropyridin-3-yl)phenyl)propyl)-6-(2-hydroxy-2-methylpropyl)-6-phenyl-1,3-oxazinan-2-one], for which the “Biological Test Example 5 (%)” value in the data set with Plasma protein worked out at 9.0%.

Consider `Cc1cc(-c2ccc([C@H](C)N3CC[C@](CC(C)(C)O)(c4ccccc4)OC3=O)cc2)cn(C)c1=O` [Example 61, (S)-3-((S)-1-(4-(1,5-dimethyl-6-oxo-1,6-dihydropyridin-3-yl)phenyl)ethyl)-6-(2-hydroxy-2-methylpropyl)-6-phenyl-1,3-oxazinan-2-one], for which the IC50 is 40 µM in data set [1] and 18 µM in data set [2].

With `CC(C)n1ccc(-c2ccc([C@H](C)N3CC[C@](CC(C)(C)O)(c4ccccc4)OC3=O)cc2)cc1=O` [Example 68, (S)-6-(2-hydroxy-2-methylpropyl)-3-((S)-1-(4-(1-isopropyl-2-oxo-1,2-dihydropyridin-4-yl)phenyl)ethyl)-6-phenyl-1,3-oxazinan-2-one], the half-inhibitory concentration (IC50) stood at 47 µM in data set [1], 28 µM in data set [2] and 43 µM in data set [3].

As for `CCn1cc(-c2ccc([C@H](C)N3CC[C@](CC(C)(C)O)(c4ccccc4)OC3=O)cc2)cc(C)c1=O` [Example 70, (S)-3-((S)-1-(4-(1-ethyl-5-methyl-6-oxo-1,6-dihydropyridin-3-yl)phenyl)ethyl)-6-(2-hydroxy-2-methylpropyl)-6-phenyl-1,3-oxazinan-2-one], the values for the IC50 in data set [2] and in data set [3] were 23 µM and 28 µM, respectively.

As for `CCn1cc(-c2ccc([C@H](C)N3CC[C@](CC(C)(C)O)(c4ccc(F)cc4)OC3=O)cc2)ccc1=O` [Example 62, (S)-3-((S)-1-(4-(1-ethyl-6-oxo-1,6-dihydropyridin-3-yl)phenyl)ethyl)-6-(4-fluorophenyl)-6-(2-hydroxy-2-methylpropyl)-1,3-oxazinan-2-one], the values for the half-inhibitory concentration (IC50) in data set [2] and in data set [3] were 38 µM and 48 µM, respectively.

As for `CC[C@@H](c1ccc(-c2ccn(C)c(=O)c2)cc1)N1CC[C@](CC)(c2ccccc2)OC1=O` [Example 58, (R)-6-ethyl-3-((S)-1-(4-(1-methyl-2-oxo-1,2-dihydropyridin-4-yl)phenyl)propyl)-6-phenyl-1,3-oxazinan-2-one], the half-inhibitory concentration (IC50) in data set [1] came to 3 µM; in data set [2], 2 µM; in data set [3] it was 8 µM.

Take `C[C@@H](c1ccc(-c2ccc(=O)n(C(F)F)c2)cc1)N1CC[C@](CC(C)(C)O)(c2ccccc2)OC1=O` [Example 4, (S)-3-((S)-1-(4-(1-(difluoromethyl)-6-oxo-1,6-dihydropyridin-3-yl)phenyl)ethyl)-6-(2-hydroxy-2-methylpropyl)-6-phenyl-1,3-oxazinan-2-one]: the IC50 turned out to be 17 µM in data set [1] and 21 µM in data set [3].

Consider `C[C@@H](c1ccc(-c2ccn(CCF)c(=O)c2)cc1)N1CC[C@](CC(C)(C)O)(c2ccccc2)OC1=O` [Example 25, (S)-3-((S)-1-(4-(1-(2-fluoroethyl)-2-oxo-1,2-dihydropyridin-4-yl)phenyl)ethyl)-6-(2-hydroxy-2-methylpropyl)-6-phenyl-1,3-oxazinan-2-one], for which the IC50 in data set [1] came to 30 µM; in data set [3], 33 µM.

As for `CCn1c(C)cc(-c2ccc([C@H](C)N3CC[C@](CC(C)(C)O)(c4ccccc4)OC3=O)cc2)cc1=O` [Example 72, (S)-3-((S)-1-(4-(1-ethyl-6-methyl-2-oxo-1,2-dihydropyridin-4-yl)phenyl)ethyl)-6-(2-hydroxy-2-methylpropyl)-6-phenyl-1,3-oxazinan-2-one], the values for the IC50 in data set [1], in data set [2] and in data set [3] were 35 µM, 8 µM and 41 µM, respectively.

Regarding `C[C@@H](c1ccc(-c2ccc(=O)[nH]c2)cc1)N1CC[C@](CC(C)(C)C#N)(c2ccccc2)OC1=O` [Example 71, 2,2-dimethyl-3-((R)-2-oxo-3-((S)-1-(4-(6-oxo-1,6-dihydropyridin-3-yl)phenyl)ethyl)-6-phenyl-1,3-oxazinan-6-yl)propanenitrile], the IC50 was determined as 17 µM in data set [1], 24 µM in data set [2] and 6 µM in data set [3].

For the molecule `C[C@@H](c1ccc(-c2ccn(C(F)F)c(=O)c2)cc1)N1CC[C@](CC(C)(C)O)(c2ccccc2)OC1=O` [Example 5, (S)-3-((S)-1-(4-(1-(difluoromethyl)-2-oxo-1,2-dihydropyridin-4-yl)phenyl)ethyl)-6-(2-hydroxy-2-methylpropyl)-6-phenyl-1,3-oxazinan-2-one], the IC50 in data set [3] worked out at 29 µM.
